Measured values: US10064907B2, “Process to improve feed efficiency and carcass characteristics of animals” (Oligo Basics Agroindustrial LTDA., priority 2012, dated 2018)
Marks after values point to notes of the source that are not given here.

Key:
[1] = Carcass characteristics of steers, Composition versus Monensin (Example 3); type: in vivo; details: Monensin 223 mg/head/day, Composition 500 ppm in total feed, treatments differ P < 0.05
Protocol: The two groups were treated with Monensin (223 mg/head/day) and the Composition (500 ppm in total feed). Monensin is the antibiotic used in the industry as a standard to affect microbial populations in the rumen of the animals. The change in microbial populations in the rumen shifts the fermentation end products, which results in an improvement in the energy efficiency of the animal. By comparing the Composition to the industry standard, the effects due to changes in microbial populations can be deleted. Therefore, if differences were found between Monensin treated animals and the Composition treated animals, those differences would not arise from the antimicrobial effects, as both products inhibit the same type of bacteria (gram positive). The Composition was 40% cashew nut shell liquid, 12% castor oil and 48% expanded vermiculite. Dressing percent is the percentage of the carcass in relation to the total weight of the animal. Carcass quality grade goes from 1 to 9 to indicate, in increasing order, the amount of intramuscular fat. Meats with higher levels of intramuscular fat are more tender and, therefore, more expensive. Also, as the amount of energy found per unit of fat is twice as much as the amount of energy found per unit of carbohydrate and […], meats with more intramuscular fat are more energy dense than […]. […]

[2] = rats, supplemented vs non-supplemented animals; cited from earlier work

Structure (SMILES) | Carcass quality grade ([1]; grade from 1 to 9, increasing intramuscular fat, steers fed from 322 kg to 617 kg) | Dressing percent (percentage of the carcass in relation to the total weight of the animal) ([1]; steers fed from 322 kg to 617 kg live weight) | effects on feed efficiency [2]
CC[C@@]1([C@@H]2O[C@@H]([C@H]3O[C@@](O)(CO)[C@H](C)C[C@@H]3C)C[C@@H]2C)CC[C@H]([C@]2(C)CC[C@]3(C[C@H](O)[C@@H](C)[C@@H]([C@@H](C)[C@@H](OC)[C@H](C)C(=O)O)O3)O2)O1 [Monensin] | 3.18^a | 60^a percent | –
CCCCCCCCCCCCCCCc1cccc(O)c1C(=O)O [anacardic acid] | – | – | no differences
